Results from PubChem BioAssay AID248 (DTP/NCI, 2004).
“And” between values parts separate entries of the source, which are not always exact repeats. Equal values may be shown once. Toxic doses and inconclusive results are not listed.

Test system: L1210 leukemia ip in BDF1 mice, survival T/C
Test: NCI In Vivo Anticancer Drug Screen. Data for tumor model L1210 Leukemia (intraperitoneal) in B6D2F1 (BDF1) mice
Settings: higher = longer survival
Summary of the method: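 Tumor was transplanted into mice, which were then dosed with test compound or vehicle alone. Survival was recorded for each group, and the treated figure was expressed relative to the control figure.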

[1] = endpoint: mean survival time, dose: 100.0 mg/kg/injection, schedule: Q01DX009 (ip), vehicle: saline with Tween-80
[2] = endpoint: mean survival time, dose: 200.0 mg/kg/injection, schedule: Q01DX009 (ip), vehicle: saline with Tween-80
[3] = endpoint: mean survival time, dose: 400.0 mg/kg/injection, schedule: Q01DX009 (ip), vehicle: saline with Tween-80
[4] = endpoint: mean survival time, dose: 100.0 mg/kg/injection, schedule: Q01DX001 (ip), vehicle: saline
[5] = endpoint: mean survival time, dose: 200.0 mg/kg/injection, schedule: Q01DX001 (ip), vehicle: saline
[6] = endpoint: mean survival time, dose: 400.0 mg/kg/injection, schedule: Q01DX001 (ip), vehicle: saline
[7] = endpoint: mean survival time, dose: 100.0 mg/kg/injection, schedule: Q01DX009 (ip), vehicle: Klucel (hydroxypropylcellulose) (HPC)
[8] = endpoint: mean survival time, dose: 100.0 mg/kg/injection, schedule: Q04DX003 (ip), vehicle: Klucel (hydroxypropylcellulose) (HPC)
[9] = endpoint: mean survival time, dose: 200.0 mg/kg/injection, schedule: Q04DX003 (ip), vehicle: Klucel (hydroxypropylcellulose) (HPC)
[10] = endpoint: mean survival time, dose: 400.0 mg/kg/injection, schedule: Q04DX003 (ip), vehicle: Klucel (hydroxypropylcellulose) (HPC)

SMILES: NCC(OCC(=O)O)C(Cl)(Cl)Cl (stereo not given)
- T/C [1]: 93 % of control
- T/C [2]: 95 % of control
- T/C [3]: 90 % of control

SMILES: Cc1ccc(S(=O)(=O)N/N=C/c2ccc(O)cc2)cc1
- T/C (endpoint: mean survival time, dose: 87.5 mg/kg/injection, schedule: Q04DX003 (ip), vehicle: Klucel (hydroxypropylcellulose) (HPC)): 97 % of control
- T/C (endpoint: mean survival time, dose: 175.0 mg/kg/injection, schedule: Q04DX003 (ip), vehicle: Klucel (hydroxypropylcellulose) (HPC)): 105 % of control
- T/C (endpoint: mean survival time, dose: 350.0 mg/kg/injection, schedule: Q04DX003 (ip), vehicle: Klucel (hydroxypropylcellulose) (HPC)): 103 % of control

SMILES: Nc1nc(N)c2cc(NCc3ccccc3Cl)ccc2n1
- T/C (endpoint: mean survival time, dose: 3.12 mg/kg/injection, schedule: Q01DX009 (ip), vehicle: saline with Tween-80): 111 % of control
- T/C (endpoint: mean survival time, dose: 6.25 mg/kg/injection, schedule: Q01DX009 (ip), vehicle: saline with Tween-80): 103 % of control
- T/C (endpoint: mean survival time, dose: 6.25 mg/kg/injection, schedule: Q04DX003 (ip), vehicle: saline): 94 % of control
- T/C (endpoint: mean survival time, dose: 12.5 mg/kg/injection, schedule: Q01DX009 (ip), vehicle: saline with Tween-80): 95 % of control
- T/C (endpoint: mean survival time, dose: 12.5 mg/kg/injection, schedule: Q04DX003 (ip), vehicle: saline): 102 % of control
- T/C (endpoint: mean survival time, dose: 25.0 mg/kg/injection, schedule: Q01DX001 (ip), vehicle: acetone): 100 % of control

SMILES: O=C(O)c1c(Cl)c(-c2c(Cl)c(C(=O)O)c(Cl)c([N+](=O)[O-])c2Cl)c(Cl)c([N+](=O)[O-])c1Cl
- T/C [1]: 96 % of control
- T/C [2]: 96 % of control
- T/C [3]: 93 % of control

SMILES: CC(=O)N(C1=CC(=O)c2ccccc2C1=O)c1ccc(Cl)cc1
- T/C (endpoint: mean survival time, dose: 75.0 mg/kg/injection, schedule: Q01DX001 (ip), vehicle: carboxymethylcellulose (CMC)): 98 % of control
- T/C (endpoint: mean survival time, dose: 150.0 mg/kg/injection, schedule: Q01DX001 (ip), vehicle: carboxymethylcellulose (CMC)): 95 % of control
- T/C (endpoint: mean survival time, dose: 300.0 mg/kg/injection, schedule: Q01DX001 (ip), vehicle: carboxymethylcellulose (CMC)): 97 % of control

SMILES: COCn1cnc([N+](=O)[O-])c1Br
- T/C (endpoint: mean survival time, dose: 100.0 mg/kg/injection, schedule: Q01DX001 (ip), vehicle: acetone): 101 % of control
- T/C [1]: 96 % of control
- T/C (endpoint: mean survival time, dose: 200.0 mg/kg/injection, schedule: Q01DX001 (ip), vehicle: acetone): 90 % of control
- T/C [2]: 93 % of control
- T/C (endpoint: mean survival time, dose: 400.0 mg/kg/injection, schedule: Q01DX001 (ip), vehicle: acetone): 100 % of control
- T/C [3]: 86 % of control

SMILES: CC(C(=O)O)S(=O)(=O)Cc1ccccc1 (stereo not given)
- T/C [4]: 94 % of control
- T/C [5]: 97 % of control
- T/C [6]: 100 % of control

SMILES: O=C(O)CCC(=O)NNC(=O)Cc1c[nH]c2ccccc12
- T/C (endpoint: mean survival time, dose: 100.0 mg/kg/injection, schedule: Q01DX001 (ip), vehicle: other): 106 % of control
- T/C (endpoint: mean survival time, dose: 100.0 mg/kg/injection, schedule: Q04DX003 (ip), vehicle: other): 95 % of control
- T/C (endpoint: mean survival time, dose: 200.0 mg/kg/injection, schedule: Q01DX001 (ip), vehicle: other): 106 % of control
- T/C (endpoint: mean survival time, dose: 200.0 mg/kg/injection, schedule: Q04DX003 (ip), vehicle: other): 94 % of control
- T/C (endpoint: mean survival time, dose: 400.0 mg/kg/injection, schedule: Q01DX001 (ip), vehicle: other): 97 % of control
- T/C (endpoint: mean survival time, dose: 400.0 mg/kg/injection, schedule: Q04DX003 (ip), vehicle: other): 94 % of control

SMILES: Cc1cc(Cl)ccc1NC(=O)Nc1ccccc1F
- T/C [7]: 100 % of control
- T/C (endpoint: mean survival time, dose: 200.0 mg/kg/injection, schedule: Q01DX009 (ip), vehicle: Klucel (hydroxypropylcellulose) (HPC)): 96 % of control
- T/C (endpoint: mean survival time, dose: 400.0 mg/kg/injection, schedule: Q01DX009 (ip), vehicle: Klucel (hydroxypropylcellulose) (HPC)): 94 % of control

SMILES: C/C(=N/N=C(N)N)c1ccc(NC(=O)Nc2ccc(/C(C)=N/N=C(N)N)cc2)cc1
- T/C (endpoint: mean survival time, dose: 8.0 mg/kg/injection, schedule: Q03HX016 (ip), vehicle: other): 159 % of control
- T/C (endpoint: mean survival time, dose: 16.0 mg/kg/injection, schedule: Q01DX005 (ip), vehicle: other): 179 % of control
- T/C (endpoint: mean survival time, dose: 16.0 mg/kg/injection, schedule: Q01DX009 (ip), vehicle: other): 236 % of control
- T/C (endpoint: mean survival time, dose: 20.0 mg/kg/injection, schedule: Q01DX005 (ip), vehicle: saline): 121 % of control
- T/C (endpoint: mean survival time, dose: 32.0 mg/kg/injection, schedule: Q01DX005 (ip), vehicle: other): 213 % of control
- T/C (endpoint: mean survival time, dose: 32.0 mg/kg/injection, schedule: Q01DX009 (ip), vehicle: other): 239 % of control
- T/C (endpoint: mean survival time, dose: 32.0 mg/kg/injection, schedule: Q01DX009 (ip), vehicle: water): 154 % of control and 205 % of control
- T/C (endpoint: mean survival time, dose: 40.0 mg/kg/injection, schedule: Q01DX005 (ip), vehicle: saline): 159 % of control
- T/C (endpoint: mean survival time, dose: 53.0 mg/kg/injection, schedule: Q01DX009 (ip), vehicle: water): 218 % of control and 255 % of control
- T/C (endpoint: mean survival time, dose: 64.0 mg/kg/injection, schedule: Q01DX001 (ip), vehicle: other): 116 % of control
- T/C (endpoint: mean survival time, dose: 64.0 mg/kg/injection, schedule: Q01DX001 (oral), vehicle: other): 111 % of control
- T/C (endpoint: mean survival time, dose: 64.0 mg/kg/injection, schedule: Q01DX009 (oral), vehicle: other): 111 % of control
- T/C (endpoint: mean survival time, dose: 64.0 mg/kg/injection, schedule: Q04DX003 (ip), vehicle: other): 159 % of control
- T/C (endpoint: mean survival time, dose: 64.0 mg/kg/injection, schedule: Q08DX002 (ip), vehicle: other): 122 % of control
- T/C (endpoint: mean survival time, dose: 80.0 mg/kg/injection, schedule: Q01DX005 (ip), vehicle: saline): 206 % of control
- T/C (endpoint: mean survival time, dose: 88.0 mg/kg/injection, schedule: Q01DX009 (ip), vehicle: water): 223 % of control and 251 % of control
- T/C (endpoint: mean survival time, dose: 128.0 mg/kg/injection, schedule: Q01DX001 (oral), vehicle: other): 101 % of control
- T/C (endpoint: mean survival time, dose: 128.0 mg/kg/injection, schedule: Q01DX009 (oral), vehicle: other): 106 % of control
- T/C (endpoint: mean survival time, dose: 147.0 mg/kg/injection, schedule: Q01DX009 (ip), vehicle: water): 323 % of control
- T/C (endpoint: mean survival time, dose: 160.0 mg/kg/injection, schedule: Q01DX005 (ip), vehicle: saline): 197 % of control
- T/C (endpoint: mean survival time, dose: 245.0 mg/kg/injection, schedule: Q01DX009 (ip), vehicle: water): 227 % of control
- T/C (endpoint: mean survival time, dose: 256.0 mg/kg/injection, schedule: Q01DX001 (oral), vehicle: other): 101 % of control
- T/C (endpoint: mean survival time, dose: 256.0 mg/kg/injection, schedule: Q01DX009 (oral), vehicle: other): 108 % of control
- T/C (endpoint: mean survival time, dose: 320.0 mg/kg/injection, schedule: Q01DX005 (ip), vehicle: saline): 173 % of control
- T/C (endpoint: mean survival time, dose: 512.0 mg/kg/injection, schedule: Q01DX001 (oral), vehicle: other): 96 % of control
- T/C (endpoint: mean survival time, dose: 512.0 mg/kg/injection, schedule: Q01DX009 (oral), vehicle: other): 108 % of control
- T/C (endpoint: mean survival time, dose: 1024.0 mg/kg/injection, schedule: Q01DX001 (oral), vehicle: other): 97 % of control
- T/C (endpoint: mean survival time, dose: 1024.0 mg/kg/injection, schedule: Q01DX009 (oral), vehicle: other): 109 % of control
- T/C (endpoint: median survival time, dose: 5.0 mg/kg/injection, schedule: Q03HX024 (ip), vehicle: water): 152 % of control
- T/C (endpoint: median survival time, dose: 15.0 mg/kg/injection, schedule: Q03HX024 (ip), vehicle: water): 302 % of control
- T/C (endpoint: median survival time, dose: 30.0 mg/kg/injection, schedule: Q03HX024 (ip), vehicle: water): 34 % of control
- T/C (endpoint: median survival time, dose: 45.0 mg/kg/injection, schedule: Q03HX024 (ip), vehicle: water): 31 % of control

SMILES: CCOC(=O)N1c2ccccc2C=CC1/C(N)=N/O (stereo not given)
- T/C (endpoint: mean survival time, dose: 50.0 mg/kg/injection, schedule: Q01DX009 (ip), vehicle: Klucel (hydroxypropylcellulose) (HPC)): 95 % of control
- T/C [7]: 89 % of control
- T/C [8]: 97 % of control
- T/C [9]: 91 % of control

SMILES: O=[N+]([O-])c1ccc(OCCBr)c(Cl)c1
- T/C [8]: 92 % of control
- T/C [9]: 97 % of control
- T/C [10]: 96 % of control

SMILES: COc1ccc(C(=O)NC2C(OC(C)=O)OC(COC(C)=O)C(OC(C)=O)C2OC(C)=O)cc1 (stereo not given)
- T/C [4]: 98 % of control and 101 % of control
- T/C [5]: 96 % of control and 106 % of control
- T/C [6]: 90 % of control and 89 % of control

SMILES: CC1(C)CN1P(=O)(Oc1ccccc1)N1CC1(C)C (stereo not given)
- T/C (endpoint: mean survival time, dose: 88.0 mg/kg/injection, schedule: Q01DX001 (ip), vehicle: carboxymethylcellulose (CMC)): 111 % of control

SMILES: O=C(Nc1ccccc1Cl)Oc1ccccc1-c1ccccc1
- T/C (endpoint: mean survival time, dose: 100.0 mg/kg/injection, schedule: Q04DX002 (ip), vehicle: Klucel (hydroxypropylcellulose) (HPC)): 106 % of control
- T/C (endpoint: mean survival time, dose: 200.0 mg/kg/injection, schedule: Q04DX002 (ip), vehicle: Klucel (hydroxypropylcellulose) (HPC)): 113 % of control
- T/C (endpoint: mean survival time, dose: 400.0 mg/kg/injection, schedule: Q04DX002 (ip), vehicle: Klucel (hydroxypropylcellulose) (HPC)): 120 % of control

SMILES: OCCNc1nc2ccc(Br)cc2c2ccccc12
- T/C [7]: 87 % of control
- T/C [8]: 93 % of control
- T/C [9]: 93 % of control
- T/C [10]: 106 % of control

SMILES: CCC(=O)N1CCN(C(=O)CC)c2ccccc21
- T/C (endpoint: mean survival time, dose: 50.0 mg/kg/injection, schedule: Q01DX001 (ip), vehicle: saline): 98 % of control
- T/C [4]: 104 % of control
- T/C [5]: 104 % of control
- T/C [6]: 101 % of control
